ChEMBL document CHEMBL4414547, “Discovery of a novel 2,5-dihydroxycinnamic acid-based 5-lipoxygenase inhibitor that induces apoptosis and may impair autophagic flux in RCC4 renal cancer cells” (Eur J Med Chem, 2019)
Values belong to the molecule of their own block, whether it stands above or below them. Calls of active or inactive are those of the source. The rule behind the calls is not given here.

What was measured:
DNA [1] = assay: Induction of DNA damage in VHL-deficient human RCC4 cells assessed as increase in p53 expression at 0.5 uM incubated for 24 hrs by Western blot analysis; format: cell-based
DNA [2] = assay: Induction of DNA damage in human RCC4/VHL cells assessed as increase in p53 expression at 0.5 uM incubated for 24 hrs by Western blot analysis; format: cell-based
RCC4/VHL [3] = assay: Induction of apoptosis in human RCC4/VHL cells assessed as cleavage of pro-caspase 3 at 0.5 uM incubated for 24 hrs by Western blot analysis; format: functional, cell-based
RCC4 [4] = assay: Induction of apoptosis in VHL-deficient human RCC4 cells assessed as cleavage of pro-caspase 3 at 0.5 uM incubated for 24 hrs by Western blot analysis; format: functional, cell-based
786-0 [5] = assay: Cytotoxicity against VHL-deficient human 786-0 cells assessed as reduction in cell viability incubated for 4 days by XTT assay; format: functional, cell-based; settings: 786-0, 96 h
RCC4 [6] = assay: Induction of DNA damage in VHL-deficient human RCC4 cells assessed as induction of p53 expression at 2.5 to 10 uM incubated for 24 hrs by Western blot analysis; format: functional, cell-based
[7] = molecular target: T1, Polyunsaturated fatty acid 5-lipoxygenase (Homo sapiens) (UniProt P09917); assay: Inhibition of human 5-LO transfected in HEK293 cells coexpressing FLAP assessed as leukotriene formation at 1 uM using arachidonic acid as substrate preincubated for 5 mins followed by calcium ionophore A23187/arachidonic acid addition and measured after 15 mins by RP-HPLC analysis relative to control; format: cell-based; design: scale not given: the % may be the effect or the level left
T1 sequence (whole entry): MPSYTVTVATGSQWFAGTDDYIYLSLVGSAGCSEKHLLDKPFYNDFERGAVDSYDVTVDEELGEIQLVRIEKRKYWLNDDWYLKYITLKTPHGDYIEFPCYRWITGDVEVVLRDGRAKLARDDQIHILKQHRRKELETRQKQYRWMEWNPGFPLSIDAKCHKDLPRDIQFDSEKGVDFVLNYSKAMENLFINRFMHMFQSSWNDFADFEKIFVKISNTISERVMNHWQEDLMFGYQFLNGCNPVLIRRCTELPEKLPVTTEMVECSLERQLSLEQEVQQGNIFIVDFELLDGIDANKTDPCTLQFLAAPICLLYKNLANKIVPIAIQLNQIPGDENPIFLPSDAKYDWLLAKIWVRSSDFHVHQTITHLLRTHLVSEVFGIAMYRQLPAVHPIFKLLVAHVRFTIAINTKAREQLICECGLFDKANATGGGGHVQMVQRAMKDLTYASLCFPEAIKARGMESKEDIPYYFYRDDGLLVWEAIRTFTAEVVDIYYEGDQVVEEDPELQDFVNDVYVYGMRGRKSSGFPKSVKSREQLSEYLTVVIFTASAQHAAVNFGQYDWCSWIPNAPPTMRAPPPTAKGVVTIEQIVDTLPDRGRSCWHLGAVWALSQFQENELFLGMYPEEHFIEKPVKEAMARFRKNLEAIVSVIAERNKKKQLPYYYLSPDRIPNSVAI

[8] = molecular target: T1, Polyunsaturated fatty acid 5-lipoxygenase (Homo sapiens); assay: Inhibition of 5-LO in human PMNL cells assessed as reduction in leukotriene formation at 1 uM preincubated for 5 mins followed by thapsigargin stimulation measured after 15 mins by RP-HPLC analysis relative to control; format: cell-based
RCC4 [9] = assay: Induction of cellular phenotype changes in VHL-deficient human RCC4 cells at 2.5 to 10 uM incubated for 24 hrs by inverted microscopic analysis; format: functional, cell-based
RCC4 [10] = assay: Inhibition of autophagic flux in VHL-deficient human RCC4 cells assessed as increase in p62 expression at 2.5 to 10 uM incubated for 24 hrs by Western blot analysis; format: functional, cell-based
RCC4 [11] = assay: Induction of autophagy in VHL-deficient human RCC4 cells assessed as increase in LC3B2 expression incubated for 24 hrs by Western blot analysis; format: functional, cell-based
RCC4 [12] = assay: Induction of apoptosis in VHL-deficient human RCC4 cells assessed as cleavage of pro-caspase 3 after 24 hrs by Western blot analysis; format: functional, cell-based
[13] = Cytotoxicity against VHL-positive human RCC10 cells assessed as reduction in cell viability incubated for 4 days by XTT assay; format: functional, cell-based; settings: 96 h
[14] = Antioxidant activity assessed as DPPH radical scavenging activity incubated for 30 mins under dark condition; format: functional
RCC4/VHL [15] = assay: Induction of cellular phenotype changes in human RCC4/VHL cells at 2.5 to 10 uM incubated for 24 hrs by inverted microscopic analysis; format: functional, cell-based
RCC4 [16] = assay: Induction of autophagy in VHL-deficient human RCC4 cells assessed as increase in LC3B1 expression incubated for 24 hrs by Western blot analysis; format: functional, cell-based
[17] = Cytotoxicity against VHL-deficient human RCC10 cells assessed as reduction in cell viability incubated for 4 days by XTT assay; format: functional, cell-based; settings: 96 h
RCC4/VHL [18] = assay: Induction of autophagy in human RCC4/VHL cells assessed as increase in conversion of LC3B1 to LC3B2 expression at 2.5 to 10 uM incubated for 24 hrs by Western blot analysis; format: functional, cell-based
RCC4 [19] = assay: Cytotoxicity against VHL-deficient human RCC4 cells assessed as reduction in cell viability incubated for 4 days by XTT assay; format: functional, cell-based; settings: for IC50: RCC4, 96 h
[20] = Selectivity ratio of IC50 for VHL-positive human RCC4/VHL cells to IC50 for VHL-deficient human RCC4 cells; format: functional
RCC4 [21] = assay: Induction of autophagy in VHL-deficient human RCC4 cells assessed as increase in conversion of LC3B1 to LC3B2 expression at 2.5 to 10 uM incubated for 24 hrs by Western blot analysis; format: functional, cell-based
RCC4/VHL [22] = assay: Induction of autophagy in human RCC4/VHL cells assessed as increase in LC3B1 expression incubated for 24 hrs by Western blot analysis; format: functional, cell-based
RCC4/VHL [23] = assay: Inhibition of autophagic flux in human RCC4/VHL cells assessed as increase in p62 expression at 2.5 to 10 uM incubated for 24 hrs by Western blot analysis; format: functional, cell-based
786-0 [24] = assay: Cytotoxicity against VHL-positive human 786-0 cells assessed as reduction in cell viability incubated for 4 days by XTT assay; format: functional, cell-based; settings: 786-0, 96 h
RCC4/VHL [25] = assay: Cytotoxicity against VHL-positive human RCC4/VHL cells assessed as reduction in cell viability incubated for 4 days by XTT assay; format: functional, cell-based; settings: for IC50: 96 h
[26] = molecular target: T1, Polyunsaturated fatty acid 5-lipoxygenase (Homo sapiens); assay: (§1) Inhibition of 5-LO in human PMNL cells assessed as reduction in leukotriene formation preincubated for 5 mins followed by thapsigargin stimulation measured after 15 mins by RP-HPLC analysis; format: cell-based
[27] = molecular target: T2, Polyunsaturated fatty acid 5-lipoxygenase (Homo sapiens, UniProt P09917); assay: as §1; format: cell-based
T2 sequence (P09917 whole entry): T1 sequence (whole entry)

RCC4/VHL [28] = assay: Induction of autophagy in human RCC4/VHL cells assessed as increase in LC3B2 expression incubated for 24 hrs by Western blot analysis; format: functional, cell-based
RCC4/VHL [29] = assay: Induction of DNA damage in human RCC4/VHL cells assessed as induction of p53 expression at 2.5 to 10 uM incubated for 24 hrs by Western blot analysis; format: functional, cell-based
[30] = molecular target: T1, Polyunsaturated fatty acid 5-lipoxygenase (Homo sapiens); assay: Potency index, ratio of Zileuton IC50 to compound IC50 for inhibition of 5-LO in human PMNL cells assessed as reduction in leukotriene formation preincubated for 5 mins followed by thapsigargin stimulation measured after 15 mins by RP-HPLC analysis; format: cell-based
[31] = molecular target: T1, Polyunsaturated fatty acid 5-lipoxygenase (Homo sapiens); assay: Potency index, ratio of CAPE IC50 to compound IC50 for inhibition of 5-LO in human PMNL cells assessed as reduction in leukotriene formation preincubated for 5 mins followed by thapsigargin stimulation measured after 15 mins by RP-HPLC analysis; format: cell-based
[32] = molecular target: T1, Polyunsaturated fatty acid 5-lipoxygenase (Homo sapiens); assay: Inhibition of human 5-LO transfected in HEK293 cells coexpressing FLAP assessed as reduction in leukotriene formation at 1 uM using arachidonic acid as substrate preincubated for 5 mins followed by calcium ionophore A23187/arachidonic acid addition and measured after 15 mins by RP-HPLC analysis; format: cell-based
RCC4/VHL [33] = assay: Inhibition of autophagic flux in human RCC4/VHL cells assessed as increase in p62 expression at 1.25 uM incubated for 24 hrs by Western blot analysis; format: functional, cell-based
RCC4 [34] = assay: Induction of autophagy in VHL-deficient human RCC4 cells assessed as increase in conversion of LC3B1 to LC3B2 expression at 1.25 uM incubated for 24 hrs by Western blot analysis; format: functional, cell-based
RCC4/VHL [35] = assay: Induction of autophagy in human RCC4/VHL cells assessed as increase in conversion of LC3B1 to LC3B2 expression at 1.25 uM incubated for 24 hrs by Western blot analysis; format: functional, cell-based
RCC4 [36] = assay: Induction of apoptosis in VHL-deficient human RCC4 cells assessed as cleavage of pro-caspase 3 at 1.25 uM incubated for 24 hrs by Western blot analysis; format: functional, cell-based
RCC4/VHL [37] = assay: Induction of DNA damage in human RCC4/VHL cells assessed as induction of p53 expression at 1.25 uM incubated for 24 hrs by Western blot analysis; format: functional, cell-based
RCC4 [38] = assay: Induction of cellular phenotype changes in VHL-deficient human RCC4 cells at 1.25 uM incubated for 24 hrs by inverted microscopic analysis; format: functional, cell-based
RCC4 [39] = assay: Inhibition of autophagic flux in VHL-deficient human RCC4 cells assessed as increase in p62 expression at 1.25 uM incubated for 24 hrs by Western blot analysis; format: functional, cell-based
RCC4/VHL [40] = assay: Induction of apoptosis in human RCC4/VHL cells assessed as cleavage of pro-caspase 3 at 1.25 uM incubated for 24 hrs by Western blot analysis; format: functional, cell-based
RCC4/VHL [41] = assay: Induction of cellular phenotype changes in human RCC4/VHL cells at 1.25 uM incubated for 24 hrs by inverted microscopic analysis; format: functional, cell-based
RCC4 [42] = assay: Induction of DNA damage in VHL-deficient human RCC4 cells assessed as induction of p53 expression at 1.25 uM incubated for 24 hrs by Western blot analysis; format: functional, cell-based

Structure (SMILES): COc1cccc2c1C(=O)c1c(O)c3c(c(O)c1C2=O)C[C@@](O)(C(=O)CO)C[C@@H]3O[C@H]1C[C@H](N)[C@H](O)[C@H](C)O1
Activity (DNA [1]): Active
Activity (DNA [2]): Active
Activity (RCC4/VHL [3]): inactive
Activity (RCC4 [4]): inactive

Activity [7]: 25%
inhibition [8]: > 50%
IC50 [14]: 16.4 µM
inhibition [26]: Dose-dependent effect
IC50 [27]: 0.33 µM
Ratio IC50 [30]: 7
Ratio IC50 [31]: 3
Structure (SMILES): O=C(/C=C/c1cc(O)ccc1O)OCCc1ccccc1
IC50 (786-0 [5]): 34.8 µM
Activity (RCC4 [6]): inactive
Activity (RCC4 [9]): inactive
inhibition (RCC4 [10]): Active
Activity (RCC4 [11]): Dose-dependent effect
Activity (RCC4 [12]): Dose-dependent effect
IC50 [13]: 0.96 µM
Activity (RCC4/VHL [15]): inactive
Activity (RCC4 [16]): Dose-dependent effect
IC50 [17]: 5.04 µM
Activity (RCC4/VHL [18]): Active
Activity (RCC4 [19]): Dose-dependent effect
IC50 (RCC4 [19]): 8 µM
Ratio IC50 [20]: 12
Activity (RCC4 [21]): Active
Activity (RCC4/VHL [22]): Dose-dependent effect
inhibition (RCC4/VHL [23]): Active
IC50 (786-0 [24]): > 100 µM
Activity (RCC4/VHL [25]): Dose-dependent effect
IC50 (RCC4/VHL [25]): 99.6 µM
Activity (RCC4/VHL [28]): Dose-dependent effect
Activity (RCC4/VHL [29]): inactive

Activity [7]: 100%
Structure (SMILES): O=C(/C=C/c1ccc(O)cc1O)OCCc1ccccc1

IC50 [14]: 13.9 µM
Structure (SMILES): O=C1O[C@H]([C@@H](O)CO)C(O)=C1O [ASCORBIC ACID]

inhibition [8]: Active
inhibition [32]: Active
IC50 [14]: 18.2 µM
Structure (SMILES): O=C(/C=C/c1ccc(O)c(O)c1)OCCc1ccccc1 [CAFFEIC ACID PHENETHYL ESTER]
IC50 (786-0 [5]): 26.8 µM
IC50 [13]: 12.6 µM
IC50 [17]: 19.8 µM
IC50 (RCC4 [19]): 14 µM
Ratio IC50 [20]: 2.1
IC50 (786-0 [24]): 43.8 µM
IC50 (RCC4/VHL [25]): 29.1 µM

inhibition [32]: inactive
Structure (SMILES): O=C(/C=C/c1ccc(O)cc1O)OCCCc1ccccc1

Structure (SMILES): Cc1cccc(Nc2nc(-c3ccncc3)cs2)c1
IC50 (786-0 [5]): 5.7 µM
inhibition (RCC4/VHL [33]): Active
Activity (RCC4 [34]): Active
Activity (RCC4/VHL [35]): Active
Activity (RCC4 [36]): inactive
Activity (RCC4/VHL [37]): inactive
Activity (RCC4 [38]): inactive
IC50 [13]: 12.6 µM
inhibition (RCC4 [39]): Active
IC50 [17]: 8.6 µM
Activity (RCC4/VHL [40]): inactive
IC50 (RCC4 [19]): 1.2 µM
Ratio IC50 [20]: 4.4
IC50 (786-0 [24]): 6.9 µM
IC50 (RCC4/VHL [25]): 5.3 µM
Activity (RCC4/VHL [41]): inactive
Activity (RCC4 [42]): inactive
